The text below walks through data of patent publication US9951043B2, “Therapeutic compounds” (Gilead Sciences, Inc., priority 2013, dated 2018).

For one data set, the system named is uninfected MT-4 cells. Put plainly: Test B: Cytotoxicity Assay. Type of data set: cell-based. How it is done: (§1) MT-4 cells were next mixed with HIV-IIIb at an m.o.i of 0.003 for 1 hour, after which time 35 μL of virus/cell mixture (2000 cells) was immediately added to each well containing 40 μL of diluted compound. The plates were then incubated at 37° C. for 5 days. […] Cell lysis was carried out by incubating at room temperature for 10 min and then chemiluminescence was read.
Test B: Cytotoxicity Assay
Compound cytotoxicity and the corresponding CC50 values was determined using the same protocol as described in the antiviral assay (Test A) except that uninfected cells were used.

The subject of the next data set is HIV-IIIb. Put plainly: Test A: Antiviral Assay in MT4 Cells. Type of data set: cell-based, HIV-1. The note with it: for inhibition at 0.2 µM / inhibition at 2 µM: Human immunodeficiency virus 1, IIIB, comparison with previously published compounds (WO 2013/006738); for inhibition at 0.2 µM: MT4, read-out: Response at 0.2 μM (percent inhibition of virus-induced cell killing), 0.2 μM; for inhibition at 2 µM: MT4, read-out: Response at 2 μM (percent inhibition of virus-induced cell killing), 2 μM; for % inhibition at 0.2 μM (percent inhibition of virus-induced cell killing): 0.2 μM drug concentration; for % inhibition at 0.2 μM (percent inhibition of virus-induced cell killing) / % inhibition at 2 μM (percent inhibition of virus-induced cell killing): MT-4 cells infected with HIV-IIIb, 5 days, calculated from the dose response curve, values above 100 normalized to 100%; for % inhibition at 2 μM (percent inhibition of virus-induced cell killing): 2 μM drug concentration. How it is done: Test A: Antiviral Assay in MT4 Cells
as §1
The data above represent an average over time of each assay for each compound. […] Thus, the data reported in the tables include the data reported in the priority document, as well as data from assays run in the intervening period.

The mark [1] stands for this setting: uninfected MT-4 cells, same protocol as Test A, 5 days, read-out: CC50.

SMILES strings stand for the structures. Read-outs that look alike come from different tables or passages of the source.

Turning to `Cn1nc(NS(=O)(=O)C(F)(F)F)c2c(Cl)ccc(-c3ccc(C#CC(C)(C)O)nc3[C@H](Cc3cc(F)cc(F)c3)NC(=O)Cn3nc(C(F)F)c4c3C(F)(F)[C@@H]3C[C@H]43)c21` [Compound 171D], the half-maximal cytotoxic concentration (CC50) in the data set with uninfected MT-4 cells was more than 42.5 µM.
For `CC(C)(O)C#Cc1ccc(-c2ccc(F)c(C(N)=O)c2)c([C@H](Cc2cc(F)cc(F)c2)NC(=O)Cn2nc(C(F)(F)F)c3c2C(F)(F)[C@@H]2C[C@H]32)n1`, in the data set with HIV-IIIb, the inhibition at 0.2 µM is 96% and the inhibition at 2 µM was 90%.
Turning to `CC(C)(O)C#Cc1ccc(-c2cccc3c2CNC3=O)c([C@H](Cc2cc(F)cc(F)c2)NC(=O)Cn2nc(C(F)(F)F)c3c2C(F)(F)[C@@H]2C[C@H]32)n1` [Compound 15, 2-((3bS,4aR)-5,5-difluoro-3-(trifluoromethyl)-3b,4,4a,5-tetrahydro-1H-cyclopropa[3,4]cyclopenta[1,2-c]pyrazol-1-yl)-N—((S)-2-(3,5-difluorophenyl)-1-(6-(3-hydroxy-3-methylbut-1-yn-1-yl)-3-(1-oxoisoindolin-4-yl)pyridin-2-yl)ethyl)acetamide], in the data set with HIV-IIIb, the “% inhibition at 0.2 μM (percent inhibition of virus-induced cell killing)” value is given as 93% and the “% inhibition at 2 μM (percent inhibition of virus-induced cell killing)” value is on record as 94%. In the data set with uninfected MT-4 cells (setting [1]), the 50% cytotoxic concentration (CC50) is 10.3 µM.
For the molecule `Cn1nc(NS(C)(=O)=O)c2c(Cl)ccc(-c3ccc(C#CC(C)(C)O)nc3[C@H](Cc3cc(F)cc(F)c3)NC(=O)Cn3nc(C4(O)CC4)c4c3CCCC4)c21` [Compound 156E, (S)—N-(1-(3-(4-chloro-1-methyl-3-(methylsulfonamido)-1H-indazol-7-yl)-6-(3-hydroxy-3-methylbut-1-yn-1-yl)pyridin-2-yl)-2-(3,5-difluorophenyl)ethyl)-2-(3-(1-hydroxvcyclopropyl)-4,5,6,7-tetrahydro-1H-indazol-1-yl)acetamide], in the data set with HIV-IIIb, the “% inhibition at 0.2 μM (percent inhibition of virus-induced cell killing)” value is reported as 78% and the “% inhibition at 2 μM (percent inhibition of virus-induced cell killing)” value is on record as 78%. Further, the CC50 in the data set on uninfected MT-4 cells came out at 25.6 µM.
`CC(C)(O)C#Cc1ccc(-c2ccc3nnc(N)n3c2)c([C@H](Cc2cc(F)cc(F)c2)NC(=O)Cn2nc(C(F)F)c3c2C(F)(F)[C@@H]2C[C@H]32)n1` [Compound 105E]: the “% inhibition at 2 μM (percent inhibition of virus-induced cell killing)” value in the data set on HIV-IIIb was 74%. The molecule also yielded a 50% cytotoxic concentration (CC50) with uninfected MT-4 cells of 31.5 µM.
As to `Cn1nc(NS(C)(=O)=O)c2c(Cl)ccc(-c3ccc(C#CC(C)(C)O)nc3[C@H](Cc3cccc(F)c3)NC(=O)Cn3nc(C(F)(F)F)c4c3C(F)(F)[C@@H]3C[C@H]43)c21` [Compound 187G, N—((S)-1-(3-(4-chloro-1-methyl-3-(methylsulfonamido)-1H-indazol-7-yl)-6-(3-hydroxy-3-methylbut-1-yn-1-yl)pyridin-2-yl)-2-(3-fluorophenyl)ethyl)-2-((3b,4aR)-5,5-difluoro-3-(trifluoromethyl)-3b,4,4a,5-tetrahydro-1H-cyclopropa[3,4]cyclopenta[1,2-c]pyrazol-1-yl)acetamide], in the data set with HIV-IIIb, the “% inhibition at 0.2 μM (percent inhibition of virus-induced cell killing)” value is recorded as 84% and the “% inhibition at 2 μM (percent inhibition of virus-induced cell killing)” value was 84%. Besides, in the data set with uninfected MT-4 cells, the midpoint of cytotoxicity, the CC50, lay at 19.8 µM.
Take `CC(C)(O)C#Cc1ccc(-c2ccc(Cl)n3c(N)nnc23)c([C@H](Cc2cc(F)cc(F)c2)NC(=O)Cn2nc(C(F)F)c3c2C(F)(F)[C@@H]2C[C@H]32)n1` [Compound 106E]: in the data set with HIV-IIIb, the “% inhibition at 0.2 μM (percent inhibition of virus-induced cell killing)” value is given as 95% and the “% inhibition at 2 μM (percent inhibition of virus-induced cell killing)” value is recorded as 96%. Further, in the data set with uninfected MT-4 cells, the half-maximal cytotoxic concentration (CC50) was 12.4 µM.
Take `COc1ccc(-c2ccc(C#CC(C)(C)O)nc2[C@H](Cc2cc(F)cc(F)c2)NC(=O)Cn2nc(C(F)F)c3c2C(F)(F)[C@@H]2C[C@H]32)c2c1c(N)nn2C` [Compound 114G]: in the data set on HIV-IIIb, the “% inhibition at 0.2 μM (percent inhibition of virus-induced cell killing)” value is 100% and the “% inhibition at 2 μM (percent inhibition of virus-induced cell killing)” value is on record as 100%. Besides, half-maximal cytotoxicity in the data set with uninfected MT-4 cells (CC50) was put at 14.8 µM.
For the molecule `CC(C)(O)C#Cc1ccc(-c2ccc(F)c(C(N)=O)c2)c([C@H](Cc2cc(F)cc(F)c2)NC(=O)Cn2nc(C(F)F)c3c2C(F)(F)CCC3(F)F)n1`, in the data set on HIV-IIIb, the inhibition at 0.2 µM was found to be 71% and the inhibition at 2 µM was 84%.
On to `Cn1nc(N)c2c(Cl)ccc(-c3ccc(C#CC(C)(C)O)nc3[C@H](Cc3cc(F)cc(F)c3)NC(=O)Cn3nc(C(F)(F)F)c4c3C(F)(F)[C@@H]3C[C@H]43)c21` [Compound 55C], for which, in the data set with HIV-IIIb, the “% inhibition at 0.2 μM (percent inhibition of virus-induced cell killing)” value is given as 92% and the “% inhibition at 2 μM (percent inhibition of virus-induced cell killing)” value is recorded as 92%. Moreover, half-maximal cytotoxicity in the data set with uninfected MT-4 cells (CC50) was put at 9.56 µM.
As for `Cn1nc(NS(C)(=O)=O)c2c(Cl)ccc(-c3ccc(C#CC(C)(C)O)nc3[C@H](Cc3cc(F)cc(F)c3)NC(=O)Cn3ncc4c3C(F)(F)[C@@H]3C[C@H]43)c21` [Compound 150, N—((S)-1-(3-(4-chloro-1-methyl-3-(methylsulfonamido)-1H-indazol-7-yl)-6-(3-hydroxy-3-methylbut-1-yn-1-yl)pyridin-2-yl)-2-(3,5-difluorophenyl)ethyl)-2-((3bS,4aR)-5,5-difluoro-3b,4,4a,5-tetrahydro-1H-cyclopropa[3,4]cyclopenta[1,2-c]pyrazol-1-yl)acetamide], in the data set with uninfected MT-4 cells (setting [1]), the CC50 was determined as 28.9 µM.
On to `CCNc1nn(C)c2c(-c3ccc(C#CC(C)(C)O)nc3[C@H](Cc3cc(F)cc(F)c3)NC(=O)Cn3nc(C(F)F)c4c3C(F)(F)[C@@H]3C[C@H]43)ccc(Cl)c12` [Compound 91E], for which, in the data set with HIV-IIIb, the “% inhibition at 0.2 μM (percent inhibition of virus-induced cell killing)” value is 100% and the “% inhibition at 2 μM (percent inhibition of virus-induced cell killing)” value is listed as 100%. It took 9.38 µM to reach half-maximal cytotoxicity in the data set on uninfected MT-4 cells (CC50).
Regarding `CC(C)(O)C#Cc1ccc(-c2ccc(Cl)n3c(NS(C)(=O)=O)nnc23)c([C@H](Cc2cc(F)cc(F)c2)NC(=O)Cn2nc(C(F)F)c3c2C(F)(F)[C@@H]2C[C@H]32)n1` [Compound 110E], in the data set with HIV-IIIb, the “% inhibition at 0.2 μM (percent inhibition of virus-induced cell killing)” value was 15% and the “% inhibition at 2 μM (percent inhibition of virus-induced cell killing)” value is recorded as 98%. This molecule yielded a half-maximal cytotoxic concentration (CC50) with uninfected MT-4 cells of more than 53.2 µM.
For `Cn1nc(N)c2c(C#N)ccc(-c3ccc(C#CC(C)(C)O)nc3[C@H](Cc3cc(F)cc(F)c3)NC(=O)Cn3nc(C(F)F)c4c3C(F)(F)[C@@H]3C[C@H]43)c21` [Compound 77E] the same measures were 96%, 97% and 11.8 µM.
For the molecule `NC(=O)c1cc(-c2ccc(-c3ccc(F)c(C(N)=O)c3)c([C@H](Cc3cc(F)cc(F)c3)NC(=O)Cn3nc(C(F)F)c4c3C(F)(F)CCC4(F)F)n2)ccc1F`, in the data set with HIV-IIIb, the inhibition at 0.2 µM stood at 3% and the inhibition at 2 µM amounted to 58%.
`Cc1nc(NS(C)(=O)=O)c2cccc(-c3ccc(C#CC(C)(C)O)nc3[C@H](Cc3cc(F)cc(F)c3)NC(=O)Cn3nc(C(F)F)c4c3C(F)(F)[C@@H]3C[C@H]43)n12` [Compound 120H, 2-((3bS,4aR)-3-(difluoromethyl)-5,5-difluoro-3b,4,4a,5-tetrahydro-1H-cyclopropa[3,4]cyclopenta[1,2-c]pyrazol-1-yl)-N—((S)-2-(3,5-difluorophenyl)-1-(6-(3-hydroxy-3-methylbut-1-yn-1-yl)-3-(3-methyl-1-(methylsulfonamido)imidazo[1,5-a]pyridin-5-yl)pyridin-2-yl)ethyl)acetamide]: the CC50 in the data set with uninfected MT-4 cells (setting [1]) worked out at 11.7 µM.
Same read-out and setting: next, `Cn1nc(NS(C)(=O)=O)c2c(Cl)ccc(-c3ccc(C#CC(C)(C)N)nc3[C@H](Cc3cc(F)cc(F)c3)NC(=O)Cn3nc(C(F)F)c4c3C(F)(F)[C@@H]3C[C@H]43)c21` [Compound 127, N—((S)-1-(6-(3-amino-3-methylbut-1-yn-1-yl)-3-(4-chloro-1-methyl-3-(methylsulfonamido)-1H-indazol-7-yl)pyridin-2-yl)-2-(3,5-difluorophenyl)ethyl)-2-((3bS,4aR)-3-(difluoromethyl)-5,5-difluoro-3b,4,4a,5-tetrahydro-1H-cyclopropa[3,4]cyclopenta[1,2-c]pyrazol-1-yl)acetamide]: 8.76 µM; `Cn1nc(NS(C)(=O)=O)c2c(Cl)ccc(-c3ccc(C#CC(C)(C)O)nc3[C@H](Cc3cc(F)cc(F)c3)NC(=O)Cn3nc(Cl)c4c3C(F)(F)[C@@H]3C[C@H]43)c21` [Compound 149, N—((S)-1-(3-(4-chloro-1-methyl-3-(methylsulfonamido)-1H-indazol-7-yl)-6-(3-hydroxy-3-methylbut-1-yn-1-yl)pyridin-2-yl)-2-(3,5-difluorophenyl)ethyl)-2-((3bS,4aR)-3-chloro-5,5-difluoro-3b,4,4a,5-tetrahydro-1H-cyclopropa[3,4]cyclopenta[1,2-c]pyrazol-1-yl)acetamide]: 26.7 µM.
Turning to `C#Cc1ccc(-c2ccc(Cl)c3cnn(C)c23)c([C@H](Cc2cc(F)cc(F)c2)NC(=O)Cn2nc(C(F)F)c3c2C(F)(F)[C@@H]2C[C@H]32)n1` [Compound 136D, N—((S)-1-(3-(4-chloro-1-methyl-1H-indazol-7-yl)-6-ethynylpyridin-2-yl)-2-(3,5-difluorophenyl)ethyl)-2-((3bS,4aR)-3-(difluoromethyl)-55-difluoro-3b,4,4a,5-tetrahydro-1H-cyclopropa[3,4]cyclopenta[1,2-c]pyrazol-1-yl)acetamide], in the data set with uninfected MT-4 cells, it took 7.43 µM to reach half-maximal cytotoxicity (CC50).
